Measured values from ChEMBL document CHEMBL3272102, “Carboxyarylindoles as nonsteroidal antiinflammatory agents” (J Med Chem, 1976).

What was measured:
[1] = system: Rattus norvegicus; assay: Antiinflammatory activity in po dosed Wistar rat assessed as inhibition of carrageenan-induced paw edema administered 30 mins prior to 1%, sc carrageenan challenge measured after 3 hrs; format: functional
[2] = system: Rattus norvegicus; assay: Antiinflammatory activity in po dosed Wistar rat assessed as inhibition of carrageenan-induced paw edema administered 60 mins prior to 1%, sc carrageenan challenge measured after 3 hrs; format: functional
[3] = system: Rattus norvegicus; assay: Antiinflammatory activity in Wistar rat assessed as inhibition of carrageenan-induced paw edema at 200 mg/kg, po administered 30 mins prior to 1%, sc carrageenan challenge measured after 3 hrs; format: functional
[4] = system: Rattus norvegicus; assay: Antiinflammatory activity in po dosed Wistar rat assessed as inhibition of carrageenan-induced paw edema administered 120 mins prior to 1%, sc carrageenan challenge measured after 3 hrs; format: functional
[5] = system: Rattus norvegicus; assay: Toxicity in po dosed Wistar rat; format: organism-based; details: in vivo

Structure (SMILES) | inhibition in vivo at 200 mg/kg [3] | further results
O=C(O)c1cc(-n2c(-c3ccccc3)cc3c4ccccc4ccc32)ccc1O | ≥ 60% | ED50 [1]: 105 mg/kg; ED50 [2]: 69 mg/kg
O=C(O)c1cc(-n2c(-c3ccc(Cl)cc3)cc3c2CCCC3)ccc1O | 40% | 
O=C(O)c1cc(-n2c(-c3ccccc3)cc3c2-c2ccccc2CC3)ccc1O | 0% | 
O=C(O)c1cc(-n2c(-c3ccccc3)cc3c2Cc2ccccc2-3)ccc1O | 30% | 
COc1ccc(-c2cc3c(n2-c2ccc(O)c(C(=O)O)c2)CCCC3)cc1 | 50% | ED50 [1]: 173 mg/kg
O=C(O)c1cc(-n2c(-c3cccs3)cc3c2CCCC3)ccc1O | 30% | 
O=C(O)c1cc(-n2c(-c3ccccc3)cc3c2CCCC3)ccc1O | ≥ 60% | ED50 [1]: 87 mg/kg
O=C(O)c1cc(-n2c(-c3ccc(F)cc3)cc3c2CCCC3)ccc1O | ≥ 60% | ED50 [1]: 88 mg/kg
O=C(O)c1cc(-n2c(-c3cccc(C(F)(F)F)c3)cc3c2CCCC3)ccc1O | 20% | 
COC(=O)c1cc(-n2c(-c3ccccc3)cc3c2CCc2ccccc2-3)ccc1O | 30% | 
O=C(O)c1cc(-n2c(-c3ccccc3)cc3c2CCCC3=O)ccc1O | 0% | 
COC(=O)c1cc(-n2c(-c3ccccc3)cc3c2CCCC3)ccc1SC(=O)N(C)C | 0% | 
O=C(O)c1cc(-n2c(-c3ccc(O)cc3)cc3c2CCCC3)ccc1O | 20% | 
O=C(O)c1cc(-n2c(-c3ccccc3)cc3c2CCCC3)cc(Cl)c1O | 0% | 
O=C(O)c1cc(-n2c(-c3ccc([N+](=O)[O-])cc3)cc3c2CCCC3)ccc1O | 30% | 
CCNC(=O)c1cc(-n2c(-c3ccccc3)cc3c2CCc2ccccc2-3)ccc1O | 0% | 
O=C(O)c1cc(-n2c(-c3ccccc3)cc3c2CCCC3)ccc1S | 50% | 
O=C(O)c1cc(-n2c(-c3ccccc3)cc3c2CCCC3)cc(Br)c1O | 0% | 
CC(C)(C)C1CCc2c(cc(-c3ccccc3)n2-c2ccc(O)c(C(=O)O)c2)C1 (stereo not given) | 0% | 
COC1CCc2c(cc(-c3ccccc3)n2-c2ccc(O)c(C(=O)O)c2)C1 (stereo not given) | 40% | 
O=C(O)c1cc(-n2c3c(c(-c4ccccc4)c2-c2ccccc2)CCCC3)ccc1O | 30% | 
COC(=O)c1cc(-n2c(-c3ccccc3)cc3c2CCCC3)ccc1OC(=S)N(C)C | 0% | 
O=C(O)c1cc(-n2c(-c3ccc(-c4ccccc4)cc3)cc3c2CCCC3)ccc1O | 50% | ED50 [1]: 162 mg/kg
Cc1ccc(-c2cc3c(n2-c2ccc(O)c(C(=O)O)c2)CCCC3)cc1 | 30% | 
CC(=O)Oc1ccccc1C(=O)O [ASPIRIN] | ≥ 60% | ED50 [1]: 140 mg/kg
CC(=O)c1c2c(n(-c3ccc(O)c(C(=O)O)c3)c1-c1ccccc1)CCc1ccccc1-2 | 0% | 

Structure (SMILES) | inhibition in vivo at 200 mg/kg [3] | further results
O=C(O)c1cc(-n2c(-c3ccccc3)cc3c2CCc2ccccc2-3)ccc1O [FENDOSAL] | ≥ 60% | ED50 [1]: 125 mg/kg; ED50 [4]: 66 mg/kg
O=C(O)c1cc(-n2c(-c3ccccc3)cc3c2CCCC3)ccc1Cl | 40% | 
CCOC(=O)c1cc(-n2c(-c3ccccc3)cc3c2CCc2ccccc2-3)ccc1O | 0% | 
COc1cccc(-c2cc3c(n2-c2ccc(O)c(C(=O)O)c2)CCCC3)c1 | 20% | 
O=C(O)c1cc(-n2c(-c3ccccc3)cc3c2CCCCC3)ccc1O | 50% | Activity [5]: Toxic
COc1ccccc1-c1cc2c(n1-c1ccc(O)c(C(=O)O)c1)CCCC2 | 50% | 
O=C(O)c1cc(-n2c(-c3ccccc3)cc3c2CCC3)ccc1O | 40% | Activity [5]: Toxic
O=C(O)c1cc(-n2c(-c3ccccc3)cc3c2CCc2cc(Cl)ccc2-3)ccc1O | 50% | 
Nc1ccc(-n2c(-c3ccccc3)cc3c2CCCC3)cc1C(=O)O | 40% | 
O=C(O)c1cc(-n2c(-c3ccc(Cl)c(Cl)c3)cc3c2CCCC3)ccc1O | 0% | 
CC1CCc2c(cc(-c3ccccc3)n2-c2ccc(O)c(C(=O)O)c2)C1 (stereo not given) | 40% | 
COC(=O)c1cc(-n2c(-c3ccccc3)cc3c2CCCC3)ccc1O | 0% | 
O=C(O)c1cc(-n2c(-c3ccc(Br)cc3)cc3c2CCCC3)ccc1O | 40% | 
CC(C)(C)c1cc2c(n1-c1ccc(O)c(C(=O)O)c1)CCc1ccccc1-2 | 40% | 
O=C(O)c1cc(-n2c(-c3ccccc3)cc3ccccc32)ccc1O | ≥ 60% | 
O=C(O)c1cc(-n2c(-c3ccccc3)cc3c2CCCC3)c(C(F)(F)F)cc1O | 0% | 
CC(=O)Oc1ccc(-n2c(-c3ccccc3)cc3c2CCCC3)cc1C(=O)O | 50% | 
O=C(O)c1cccc(-n2c(-c3ccccc3)cc3c2CCCC3)c1 | 20% | 
COc1ccc(-n2c(-c3ccccc3)cc3c2CCCC3)cc1C(=O)O | 40% | 
CC(=O)Nc1ccc(-n2c(-c3ccccc3)cc3c2CCCC3)cc1C(=O)O | 30% | 
O=C(O)c1ccc(-n2c(-c3ccccc3)cc3c2CCCC3)cc1O | 0% | 
CC(C)(C)c1ccc2c(c1)cc(-c1ccccc1)n2-c1ccc(O)c(C(=O)O)c1 | 0% | 
N#Cc1ccc(-c2cc3c(n2-c2ccc(O)c(C(=O)O)c2)CCCC3)cc1 | 0% | 
CC(=O)Nc1cc(-n2c(-c3ccccc3)cc3c2CCCC3)cc(C(=O)O)c1O | 0% | 
COc1ccc2c(c1)CCc1c-2cc(-c2ccccc2)n1-c1ccc(O)c(C(=O)O)c1 | 50% | ED50 [2]: 164 mg/kg
CC(=O)Oc1ccc(-n2c(-c3ccccc3)cc3c2CCc2ccccc2-3)cc1C(=O)O | 50% | ED50 [4]: 75 mg/kg
